{"source": "patent US6525188B2", "about": "“Nuclear retinoic acid co-receptor” (Karo Bio Ab, priority 1994, dated 2003)", "tested_on": "RXR / OR-1 on a DR4-containing promoter", "test": "PAP reporter gene under DR4-containing promoter, transfected embryonal carcinoma P19 EC cells", "conditions": "100 nM 9-cis retinoic acid, 36 h, PAP activity", "method": "Embryonal carcinoma P19 EC cells were cultured in Dulbecco's modified Eagle's medium supplemented with 10% foetal calf serum, nonessential amino acids, penicillin (100 units/ml) and streptomycin (100 mg/ml). […] Cells were plated in duplicate in 35 mm Petri dishes and transfected at 30% confluency, using lipofectin reagent (Bethesada Research Laboratories, USA) according to the recommendations of the supplier.\nTransfections were repeated 6 times with different plasmid preparations and data from a representative experiment is presented here.\nSince OR-1 and RXR formed a specific complex on the DR4 sequence in vitro, coexpression of OR-1 in embryonal carcinoma (EC) cells that express endogenous RXR was tested to determine whether it could affect the activity of a reporter gene under the control of a DR4-containing promoter."}
{"smiles": "CC1=C(/C=C/C(C)=C\\C=C\\C(C)=C\\C(=O)O)C(C)(C)CCC1", "note": "[9-cis retinoic acid]", "values": [{"measurement": "activation of RXR on a DR4-containing promoter", "setting": "EC cells with endogenous RXR, OR-1 expressed", "value": "activation"}, {"measurement": "induction of RXR on a reporter containing DR4", "setting": "embryonal carcinoma (EC) cells with endogenous RXR, without OR-1 expression", "value": "no induction"}]}
